Reference: ChEMBL document CHEMBL4428075, “New antiproliferative 7-(4-(N-substituted carbamoylmethyl)piperazin-1-yl) derivatives of ciprofloxacin induce cell cycle arrest at G2/M phase” (Bioorg Med Chem, 2016)

How the values were obtained:
[1] = tested on: Hs-578T; assay: Antiproliferative activity against human Hs 578T cells at 10^-5 M after 48 hrs by SRB assay; format: functional; details: read-out: GI
[2] = tested on: T47D; assay: Antiproliferative activity against human T47D cells at 10^-5 M after 48 hrs by SRB assay; format: functional; details: read-out: GI
[3] = tested on: IGROV-1; assay: Antiproliferative activity against human IGROV1 cells at 10^-5 M after 48 hrs by SRB assay; format: functional; details: IGROV-1, 48 h, read-out: GI
[4] = tested on: SNB-75; assay: Antiproliferative activity against human SNB75 cells at 10^-5 M after 48 hrs by SRB assay; format: functional; details: SNB-75, 48 h, read-out: GI
[5] = tested on: SR; assay: Antiproliferative activity against human SR cells at 10^-5 M after 48 hrs by SRB assay; format: functional; details: read-out: GI
[6] = tested on: HCT-15; assay: Antiproliferative activity against human HCT15 cells at 10^-5 M after 48 hrs by SRB assay; format: functional; details: HCT-15, 48 h, read-out: GI
[7] = tested on: CCRF-CEM; assay: Antiproliferative activity against human CCRF-CEM cells at 10^-5 M after 48 hrs by SRB assay; format: functional; details: read-out: GI
[8] = tested on: PC-3; assay: Antiproliferative activity against human PC3 cells at 10^-5 M after 48 hrs by SRB assay; format: functional; details: PC-3, 48 h, read-out: GI
[9] = tested on: NCI-H226; assay: Antiproliferative activity against human NCI-H226 cells at 10^-5 M after 48 hrs by SRB assay; format: functional; details: NCI-H226, 48 h, read-out: GI
[10] = tested on: NCI-H322M; assay: Antiproliferative activity against human NCI-H322M cells at 10^-5 M after 48 hrs by SRB assay; format: functional; details: read-out: GI
[11] = tested on: NCI-H23; assay: Antiproliferative activity against human NCI-H23 cells at 10^-5 M after 48 hrs by SRB assay; format: functional; details: NCI-H23, 48 h, read-out: GI
[12] = tested on: CAKI-1; assay: Antiproliferative activity against human Caki1 cells at 10^-5 M after 48 hrs by SRB assay; format: functional; details: CAKI-1, 48 h, read-out: GI
[13] = tested on: KM12; assay: Antiproliferative activity against human KM12 cells at 10^-5 M after 48 hrs by SRB assay; format: functional; details: KM12, 48 h, read-out: GI
[14] = tested on: NCI-H460; assay: Antiproliferative activity against human NCI-H460 cells at 10^-5 M after 48 hrs by SRB assay; format: functional; details: NCI-H460, 48 h, read-out: GI
[15] = tested on: SK-MEL-28; assay: Antiproliferative activity against human SK-MEL-28 cells at 10^-5 M after 48 hrs by SRB assay; format: functional; details: SK-MEL-28, 48 h, read-out: GI
[16] = tested on: UACC-62; assay: Antiproliferative activity against human UACC62 cells at 10^-5 M after 48 hrs by SRB assay; format: functional; details: UACC-62, 48 h, read-out: GI
[17] = tested on: RXF 393; assay: Antiproliferative activity against human RXF393 cells at 10^-5 M after 48 hrs by SRB assay; format: functional; details: RXF 393, 48 h, read-out: GI
[18] = tested on: NCI-H522; assay: Antiproliferative activity against human NCI-H522 cells at 10^-5 M after 48 hrs by SRB assay; format: functional; details: NCI-H522, 48 h, read-out: GI
[19] = tested on: SF-295; assay: Antiproliferative activity against human SF295 cells at 10^-5 M after 48 hrs by SRB assay; format: functional; details: SF-295, 48 h, read-out: GI
[20] = tested on: MOLT-4; assay: Antiproliferative activity against human MOLT4 cells at 10^-5 M after 48 hrs by SRB assay; format: functional; details: MOLT-4, 48 h, read-out: GI
[21] = tested on: MDA-MB-435; assay: Antiproliferative activity against human MDA-MB-435 cells at 10^-5 M after 48 hrs by SRB assay; format: functional; details: MDA-MB-435, 48 h, read-out: GI
[22] = tested on: HOP-62; assay: Antiproliferative activity against human HOP62 cells at 10^-5 M after 48 hrs by SRB assay; format: functional; details: HOP-62, 48 h, read-out: GI
[23] = tested on: HCC 2998; assay: Antiproliferative activity against human HCC2998 cells at 10^-5 M after 48 hrs by SRB assay; format: functional; details: HCC 2998, 48 h, read-out: GI
[24] = tested on: HCT-116; assay: Antiproliferative activity against human HCT116 cells at 10^-5 M after 48 hrs by SRB assay; format: functional; details: HCT-116, 48 h, read-out: GI
[25] = tested on: SF-268; assay: Antiproliferative activity against human SF268 cells at 10^-5 M after 48 hrs by SRB assay; format: functional; details: SF-268, 48 h, read-out: GI
[26] = tested on: SK-MEL-5; assay: Antiproliferative activity against human SK-MEL-5 cells at 10^-5 M after 48 hrs by SRB assay; format: functional; details: SK-MEL-5, 48 h, read-out: GI
[27] = tested on: NCI/ADR-RES; assay: Antiproliferative activity against human NCI-ADR-RES cells at 10^-5 M after 48 hrs by SRB assay; format: functional; details: read-out: GI
[28] = tested on: UACC-257; assay: Antiproliferative activity against human UACC257 cells at 10^-5 M after 48 hrs by SRB assay; format: functional; details: UACC-257, 48 h, read-out: GI
[29] = tested on: A549; assay: Antiproliferative activity against human A549 cells after 24 hrs by BrdU incorporation assay; format: functional, cell-based; details: A549, 24 h
[30] = tested on: RPMI-8226; assay: Antiproliferative activity against human RPMI8226 cells at 10^-5 M after 48 hrs by SRB assay; format: functional; details: RPMI-8226, 48 h, read-out: GI
[31] = tested on: WI-38; assay: Antiproliferative activity against human WI38 cells after 24 hrs by BrdU incorporation assay; format: cell-based; details: WI-38, 24 h
[32] = tested on: SK-OV-3; assay: Antiproliferative activity against human SKOV3 cells at 10^-5 M after 48 hrs by SRB assay; format: functional; details: SK-OV-3, 48 h, read-out: GI
[33] = tested on: SNB-19; assay: Antiproliferative activity against human SNB19 cells at 10^-5 M after 48 hrs by SRB assay; format: functional; details: SNB-19, 48 h, read-out: GI
[34] = tested on: Malme-3M; assay: Antiproliferative activity against human MALME-3M cells at 10^-5 M after 48 hrs by SRB assay; format: functional; details: read-out: GI
[35] = tested on: OVCAR-3; assay: Antiproliferative activity against human OVCAR3 cells at 10^-5 M after 48 hrs by SRB assay; format: functional; details: OVCAR-3, 48 h, read-out: GI
[36] = tested on: U-251; assay: Antiproliferative activity against human U251 cells at 10^-5 M after 48 hrs by SRB assay; format: functional; details: U-251, 48 h, read-out: GI
[37] = tested on: SN12C; assay: Antiproliferative activity against human SN12C cells at 10^-5 M after 48 hrs by SRB assay; format: functional; details: read-out: GI
[38] = tested on: MDA-MB-231; assay: Antiproliferative activity against human MDA-MB-231 cells at 10^-5 M after 48 hrs by SRB assay; format: functional; details: MDA-MB-231, 48 h, read-out: GI
[39] = tested on: 786-0; assay: Antiproliferative activity against human 786-0 cells at 10^-5 M after 48 hrs by SRB assay; format: functional; details: 786-0, 48 h, read-out: GI
[40] = tested on: M14; assay: Antiproliferative activity against human M14 cells at 10^-5 M after 48 hrs by SRB assay; format: functional; details: M14, 48 h, read-out: GI

Structure (SMILES)	inhibition of growth at 10 µM [1] [%]	inhibition of growth at 10 µM [2] [%]	inhibition of growth at 10 µM [3] [%]	inhibition of growth at 10 µM [4] [%]	inhibition of growth at 10 µM [5] [%]	inhibition of growth at 10 µM [6] [%]	inhibition of growth at 10 µM [7] [%]	inhibition of growth at 10 µM [8] [%]	inhibition of growth at 10 µM [9] [%]	inhibition of growth at 10 µM [10] [%]	inhibition of growth at 10 µM [11] [%]	inhibition of growth at 10 µM [12] [%]	inhibition of growth at 10 µM [13] [%]	inhibition of growth at 10 µM [14] [%]	inhibition of growth at 10 µM [15] [%]	inhibition of growth at 10 µM [16] [%]	inhibition of growth at 10 µM [17] [%]	inhibition of growth at 10 µM [18] [%]	inhibition of growth at 10 µM [19] [%]	inhibition of growth at 10 µM [20] [%]	also measured
O=C(CN1CCN(c2cc3c(cc2F)c(=O)c(C(=O)O)cn3C2CC2)CC1)Nc1ccc(Cl)cc1	12.3	40.9	6.22	20.3	28.9	17	23.6	19.9	19.9	47.2	5.51	32.8	17.1	12.1	12.9	36.4	25.3	114	12.1	3.53	inhibition of growth at 10 µM [21]: 11.7%; inhibition of growth at 10 µM [22]: 28.3%; inhibition of growth at 10 µM [23]: 14.2%; inhibition of growth at 10 µM [24]: 26.9%; inhibition of growth at 10 µM [25]: 8.82%; inhibition of growth at 10 µM [26]: 28.9%; inhibition of growth at 10 µM [27]: 0%; inhibition of growth at 10 µM [28]: 43%; IC50 [29]: 14.8 µM; inhibition of growth at 10 µM [30]: 27.8%; IC50 [31]: > 100 µM; inhibition of growth at 10 µM [32]: 36.6%; inhibition of growth at 10 µM [33]: 16.9%; inhibition of growth at 10 µM [34]: 8.25%; inhibition of growth at 10 µM [35]: 7.56%; inhibition of growth at 10 µM [36]: 55.8%; inhibition of growth at 10 µM [37]: 9.89%; inhibition of growth at 10 µM [38]: 39.8%; inhibition of growth at 10 µM [39]: 29.9%; inhibition of growth at 10 µM [40]: 18.2%
COc1ccc(NC(=O)CN2CCN(c3cc4c(cc3F)c(=O)c(C(=O)O)cn4C3CC3)CC2)cc1	5.32	24.5	0	12	0	0	0	11.6	16.8	26.4	7.04	0	6.61	6.32	2.72	10.5	11.8	12.9	2.32	0	inhibition of growth at 10 µM [21]: 1.51%; inhibition of growth at 10 µM [22]: 13%; inhibition of growth at 10 µM [23]: 0%; inhibition of growth at 10 µM [24]: 9.38%; inhibition of growth at 10 µM [25]: 6.72%; inhibition of growth at 10 µM [26]: 3.22%; inhibition of growth at 10 µM [27]: 0%; inhibition of growth at 10 µM [28]: 16.9%; IC50 [29]: 24.8 µM; inhibition of growth at 10 µM [30]: 3.36%; IC50 [31]: > 100 µM; inhibition of growth at 10 µM [32]: 17%; inhibition of growth at 10 µM [33]: 12.3%; inhibition of growth at 10 µM [34]: 5.64%; inhibition of growth at 10 µM [35]: 0%; inhibition of growth at 10 µM [36]: 5.8%; inhibition of growth at 10 µM [37]: 4%; inhibition of growth at 10 µM [38]: 13.8%; inhibition of growth at 10 µM [39]: 20.9%; inhibition of growth at 10 µM [40]: 8.75%
COc1cc(NC(=O)CN2CCN(c3cc4c(cc3F)c(=O)c(C(=O)O)cn4C3CC3)CC2)cc(OC)c1OC	4.61	9.38	0	0	0	0	23.2	14.5	0	0	0	0	0	0	0	0.79	0	24.4	0	0	inhibition of growth at 10 µM [21]: 0%; inhibition of growth at 10 µM [22]: 8.5%; inhibition of growth at 10 µM [23]: 0%; inhibition of growth at 10 µM [24]: 0%; inhibition of growth at 10 µM [25]: 0%; inhibition of growth at 10 µM [26]: 0%; inhibition of growth at 10 µM [27]: 0%; inhibition of growth at 10 µM [28]: 3.24%; IC50 [29]: > 100 µM; inhibition of growth at 10 µM [30]: 2.8%; IC50 [31]: > 100 µM; inhibition of growth at 10 µM [32]: 5.77%; inhibition of growth at 10 µM [33]: 0%; inhibition of growth at 10 µM [34]: 0%; inhibition of growth at 10 µM [35]: 6.06%; inhibition of growth at 10 µM [36]: 0%; inhibition of growth at 10 µM [37]: 2.78%; inhibition of growth at 10 µM [38]: 0%; inhibition of growth at 10 µM [39]: 15.2%; inhibition of growth at 10 µM [40]: 0%
